In ChEMBL document CHEMBL4699540, “Discovery and structure activity relationships of 7-benzyl triazolopyridines as stable, selective, and reversible inhibitors of myeloperoxidase” (Bioorg Med Chem, 2020):

Legend:
[1] = Binding affinity to human neutrophil MPO delta (1-95) measured for 5 mins by SPR assay
[2] = Metabolic stability in human liver microsomes assessed as compound remaining; assay type: ADME, Microsome
[3] = Metabolic stability in rat liver microsomes assessed as compound remaining; assay type: ADME, Microsome
[4] = Permeability of compound at pH 5.5 by PAMPA assay; assay type: ADME; conditions: read-out: permeability
Cytochrome P450 2C8 = biological target: T1, Cytochrome P450 2C8 (Homo sapiens, UniProt P10632); assay: Inhibition of CYP2C8 (unknown origin); assay type: ADME
T1 sequence (P10632 whole entry): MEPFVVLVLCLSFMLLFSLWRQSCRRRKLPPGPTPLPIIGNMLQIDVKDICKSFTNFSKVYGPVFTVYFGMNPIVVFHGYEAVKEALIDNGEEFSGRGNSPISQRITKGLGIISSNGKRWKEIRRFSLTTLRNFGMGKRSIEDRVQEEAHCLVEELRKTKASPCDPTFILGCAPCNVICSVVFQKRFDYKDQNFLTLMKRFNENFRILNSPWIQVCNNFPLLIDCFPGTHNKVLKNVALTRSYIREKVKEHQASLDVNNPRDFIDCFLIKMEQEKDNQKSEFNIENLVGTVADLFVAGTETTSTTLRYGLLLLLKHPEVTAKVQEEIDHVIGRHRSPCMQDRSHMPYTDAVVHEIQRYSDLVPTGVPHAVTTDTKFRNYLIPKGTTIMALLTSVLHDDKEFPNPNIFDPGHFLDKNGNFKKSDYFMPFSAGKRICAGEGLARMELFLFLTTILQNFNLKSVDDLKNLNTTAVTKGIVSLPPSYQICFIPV

Cytochrome P450 2D6 = Cytochrome P450 2D6 (Homo sapiens, UniProt P10635); assay: Inhibition of CYP2D6 (unknown origin); assay type: ADME
Cytochrome P450 3A4 = Cytochrome P450 3A4 (Homo sapiens, UniProt P08684); assay: Inhibition of CYP3A4 (unknown origin); assay type: ADME
[5] = Half life in CD-1 mouse at 3 mg/kg, po by LC/MS analysis; assay type: ADME, organism-based; conditions: in vivo
[6] = Protein binding in mouse plasma assessed as free fraction; assay type: ADME, cell-free
Eosinophil peroxidase = biological target: T2, Eosinophil peroxidase (Homo sapiens, UniProt P11678); assay: Inhibition of human EPX bromination activity using tyrosine as substrate by measuring 3-bromo tyrosine formation incubated for 10 mins
T2 sequence (P11678 whole entry): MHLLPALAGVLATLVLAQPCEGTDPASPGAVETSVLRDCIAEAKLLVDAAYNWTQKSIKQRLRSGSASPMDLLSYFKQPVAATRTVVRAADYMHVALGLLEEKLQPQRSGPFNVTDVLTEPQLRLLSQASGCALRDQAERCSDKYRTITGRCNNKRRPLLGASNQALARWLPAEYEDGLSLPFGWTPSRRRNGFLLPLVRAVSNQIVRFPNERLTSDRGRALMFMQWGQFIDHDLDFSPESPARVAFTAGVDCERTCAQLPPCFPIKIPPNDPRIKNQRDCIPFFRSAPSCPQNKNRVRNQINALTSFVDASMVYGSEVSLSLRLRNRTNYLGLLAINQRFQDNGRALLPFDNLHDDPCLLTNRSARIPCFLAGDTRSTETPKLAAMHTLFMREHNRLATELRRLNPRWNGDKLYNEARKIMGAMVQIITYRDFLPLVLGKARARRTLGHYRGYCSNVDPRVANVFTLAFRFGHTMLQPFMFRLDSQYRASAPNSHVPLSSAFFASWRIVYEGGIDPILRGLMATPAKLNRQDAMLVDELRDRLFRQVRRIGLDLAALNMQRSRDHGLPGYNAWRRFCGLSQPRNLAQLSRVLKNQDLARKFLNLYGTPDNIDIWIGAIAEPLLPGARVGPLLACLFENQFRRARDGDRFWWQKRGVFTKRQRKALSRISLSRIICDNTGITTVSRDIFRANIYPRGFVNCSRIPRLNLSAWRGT

Myeloperoxidase = biological target: T3, Myeloperoxidase (Mus musculus, UniProt P11247); assay: Inhibition of PMA-induced MPO in mouse Neutrophil incubated for 3 mins by luminometry; assay type: tissue-based
T3 sequence (P11247 whole entry): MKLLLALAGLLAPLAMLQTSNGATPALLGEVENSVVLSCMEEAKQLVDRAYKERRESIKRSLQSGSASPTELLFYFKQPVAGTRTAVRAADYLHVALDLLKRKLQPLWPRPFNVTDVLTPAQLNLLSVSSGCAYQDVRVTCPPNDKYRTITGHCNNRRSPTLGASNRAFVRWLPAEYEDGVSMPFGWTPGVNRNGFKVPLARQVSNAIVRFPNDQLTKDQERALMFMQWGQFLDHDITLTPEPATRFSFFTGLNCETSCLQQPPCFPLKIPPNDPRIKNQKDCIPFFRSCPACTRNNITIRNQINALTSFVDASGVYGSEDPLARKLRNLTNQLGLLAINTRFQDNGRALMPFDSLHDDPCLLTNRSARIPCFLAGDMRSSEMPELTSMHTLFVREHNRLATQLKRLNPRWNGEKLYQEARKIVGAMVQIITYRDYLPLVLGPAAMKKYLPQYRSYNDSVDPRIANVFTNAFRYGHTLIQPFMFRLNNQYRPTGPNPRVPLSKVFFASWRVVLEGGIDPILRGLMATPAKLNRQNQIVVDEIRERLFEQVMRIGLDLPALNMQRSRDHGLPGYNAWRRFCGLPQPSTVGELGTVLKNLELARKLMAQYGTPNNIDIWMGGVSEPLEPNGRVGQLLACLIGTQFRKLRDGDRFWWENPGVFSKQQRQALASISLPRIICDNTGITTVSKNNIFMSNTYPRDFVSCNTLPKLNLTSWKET

animal or person = conditions: Mus musculus, po, 6 h, read-out: INH

Cytochrome P450 2D6, sequence (P10635 whole entry): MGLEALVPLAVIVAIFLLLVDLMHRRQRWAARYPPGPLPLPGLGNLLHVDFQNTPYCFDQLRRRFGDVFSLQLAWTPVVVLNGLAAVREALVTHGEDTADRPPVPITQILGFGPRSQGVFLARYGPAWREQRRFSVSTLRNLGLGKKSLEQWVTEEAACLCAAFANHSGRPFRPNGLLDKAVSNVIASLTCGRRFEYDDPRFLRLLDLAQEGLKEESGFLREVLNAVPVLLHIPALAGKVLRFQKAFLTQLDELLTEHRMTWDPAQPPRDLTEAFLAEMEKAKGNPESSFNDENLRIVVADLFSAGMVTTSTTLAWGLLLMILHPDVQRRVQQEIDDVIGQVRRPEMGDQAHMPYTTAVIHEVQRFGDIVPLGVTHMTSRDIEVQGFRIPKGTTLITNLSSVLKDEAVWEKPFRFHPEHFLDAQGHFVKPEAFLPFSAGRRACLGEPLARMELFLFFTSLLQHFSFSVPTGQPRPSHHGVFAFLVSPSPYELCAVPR
Cytochrome P450 3A4, sequence (P08684 whole entry): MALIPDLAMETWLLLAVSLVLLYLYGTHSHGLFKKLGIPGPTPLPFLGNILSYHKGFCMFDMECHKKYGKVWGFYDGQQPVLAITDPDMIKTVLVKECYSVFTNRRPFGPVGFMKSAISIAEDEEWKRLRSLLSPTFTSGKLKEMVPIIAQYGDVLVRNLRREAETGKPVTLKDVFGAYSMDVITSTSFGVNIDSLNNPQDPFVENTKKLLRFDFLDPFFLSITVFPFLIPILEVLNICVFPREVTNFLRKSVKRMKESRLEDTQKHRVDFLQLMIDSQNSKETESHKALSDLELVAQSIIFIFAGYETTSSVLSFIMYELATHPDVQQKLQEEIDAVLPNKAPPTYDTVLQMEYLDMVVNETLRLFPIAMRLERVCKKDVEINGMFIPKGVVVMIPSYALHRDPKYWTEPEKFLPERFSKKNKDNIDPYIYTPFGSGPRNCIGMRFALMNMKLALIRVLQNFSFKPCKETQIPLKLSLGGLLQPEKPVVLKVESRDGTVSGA

- Stabilty [2]: 98%
- Stabilty [3]: 86%
- Papp [4]: 42.7 ×10⁻⁶ cm/s
- IC50 (Cytochrome P450 2C8): > 10 µM
- IC50 (Cytochrome P450 2D6): > 10 µM
- IC50 (Cytochrome P450 3A4): 6.6 µM
- half-life [5]: 2 h
- fraction unbound [6]: 0.36
- IC50 (Eosinophil peroxidase): 0.032 µM
- IC50 (Myeloperoxidase): 9.5 µM
Structure (SMILES): Nc1cc(Cc2ccccc2)c2nn[nH]c2n1
- Kd [1]: 0.032 µM
- inhibition in vivo at 30 mg/kg (animal or person): 55%
